# Key:
# Type in all cases: in vivo
# Tenebrio molitor pupae = assay: topical application to Tenebrio molitor pupae, maturation inhibition
# Source text: (§1) The compounds were applied in acetone solution at concentrations of 10 percent, 1 percent and 0.5 percent. One microliter of the acetone solution was applied to each test specimen. Ten test specimens were employed for each insect at each concentration and compared to ten acetone controls and ten zero controls. Approximately eight to ten days were required before results could be ascertained.
# (§2) The insect species used in the test were Tenebrio molitor pupae; milkweed bug, fourth nymphal stage; wax moth, fifth larval stage; and Mexican bean beetle, fourth larval stage. At the completion of the test, each specimen was examined for the degree of juvenile and adult characteristics. The milkweed bug, wax moth, and Mexican bean beetle were assigned a numerical rating of 0 to 3 with 0 indicating no effect and 3 indicating the maximum effect or least adult development. Because of differences in morphology the Tenebrio rating scale was 0 to 4. In all cases a rating of 2 or higher means that the insect is incapable of reproduction. The number of specimens in each rating classification are given. In any test were the total of specimens reported is less than 10, those unreported died in some metamorphic stage. Such deaths indicate control, since the dead insects are not capable of reproducing.
# Mexican bean beetle = assay: topical application to Mexican bean beetle, fourth larval stage, maturation inhibition
# Source text: as §1, §2
# milkweed bug = assay: topical application to milkweed bug, fourth nymphal stage, maturation inhibition
# Source text: as §1, §2
# wax moth = assay: topical application to wax moth, fifth larval stage, maturation inhibition
# Source text: as §1, §2
# [1] = 10% in acetone, 1 microliter topical, rating scale 0 (no effect) to 4 (maximum)
# [2] = 10% in acetone, 1 microliter topical, rating scale 0 (no effect) to 3 (maximum)
Compound,"number of specimens in rating 0 (Tenebrio molitor pupae; 0.5%, rating scale 0-4) [specimens]","number of specimens in rating 0 (Tenebrio molitor pupae; 1%, rating scale 0-4) [specimens]","number of specimens in rating 0 (Mexican bean beetle; 0.5%, rating scale 0-3) [specimens]","number of specimens in rating 0 (Mexican bean beetle; 1%, rating scale 0-3) [specimens]",number of specimens in rating 0 (Mexican bean beetle; [2]) [specimens],"number of specimens in rating 0 (milkweed bug; 0.5%, rating scale 0-3) [specimens]","number of specimens in rating 3 (milkweed bug; 0.5%, rating scale 0-3) [specimens]","number of specimens in rating 3 (milkweed bug; 1%, rating scale 0-3) [specimens]","number of specimens in rating 3 (milkweed bug; 10%, rating scale 0-3) [specimens]","number of specimens in rating 0 (wax moth; 0.5%, rating scale 0-3) [specimens]","number of specimens in rating 0 (wax moth; 1%, rating scale 0-3) [specimens]",number of specimens in rating 0 (wax moth; [2]) [specimens],"number of specimens in rating 1 (Tenebrio molitor pupae; 0.5%, rating scale 0-4) [specimens]","number of specimens in rating 4 (Tenebrio molitor pupae; 1%, rating scale 0-4) [specimens]","number of specimens in rating 0 (milkweed bug; 1%, rating scale 0-3) [specimens]","number of specimens in rating 1 (Mexican bean beetle; 1%, rating scale 0-3) [specimens]","number of specimens in rating 3 (Mexican bean beetle; 1%, rating scale 0-3) [specimens]","number of specimens in rating 3 (Mexican bean beetle; 10%, rating scale 0-3) [specimens]","number of specimens in rating 4 (Tenebrio molitor pupae; 10%, rating scale 0-4) [specimens]",further results
"CCOC(=O)c1ccc(CC/C=C(\C)CCC=C(C)C)cc1 [ethyl trans-4-(4,8-dimethyl-3,7-nonadienyl)benzoate]",9,10,9,10,8,1,6,10,10,10,10,10,,,,,,,,"number of specimens in rating 0 (Tenebrio molitor pupae; [1]): 3 specimens; number of specimens in rating 1 (Tenebrio molitor pupae; 10%, rating scale 0-4): 5 specimens; number of specimens in rating 2 (Tenebrio molitor pupae; 10%, rating scale 0-4): 1 specimens; number of specimens in rating 3 (Tenebrio molitor pupae; 10%, rating scale 0-4): 1 specimens; number of specimens in rating 2 (Mexican bean beetle; 10%, rating scale 0-3): 2 specimens; number of specimens in rating 2 (milkweed bug; 0.5%, rating scale 0-3): 3 specimens"
"COc1ccc(CCC=C(C)CCC=C(C)C)cc1 [2,6-DIMETHYL-9-(4-METHOXYPHENYL)-2,6-NONADIENE]",1,,10,10,6,10,,,,10,9,10,6,2,5,,,,,"number of specimens in rating 2 (Tenebrio molitor pupae; 0.5%, rating scale 0-4): 3 specimens; number of specimens in rating 1 (Tenebrio molitor pupae; 1%, rating scale 0-4): 1 specimens; number of specimens in rating 2 (Tenebrio molitor pupae; 1%, rating scale 0-4): 2 specimens; number of specimens in rating 3 (Tenebrio molitor pupae; 1%, rating scale 0-4): 5 specimens; number of specimens in rating 1 (Mexican bean beetle; 10%, rating scale 0-3): 1 specimens; number of specimens in rating 2 (Mexican bean beetle; 10%, rating scale 0-3): 3 specimens; number of specimens in rating 1 (milkweed bug; 1%, rating scale 0-3): 5 specimens"
"CC(C)=CCC/C(C)=C/CCc1cccc(Br)c1 [trans-9-(3-BROMOPHENYL)-2,6-DIMETHYL-2,6-NONADIENE]",8,8,8,7,9,,10,10,10,,,,1,,,1,2,1,,"number of specimens in rating 2 (Tenebrio molitor pupae; 0.5%, rating scale 0-4): 1 specimens; number of specimens in rating 1 (Tenebrio molitor pupae; 1%, rating scale 0-4): 2 specimens; number of specimens in rating 0 (Tenebrio molitor pupae; [1]): 8 specimens; number of specimens in rating 1 (Tenebrio molitor pupae; 10%, rating scale 0-4): 2 specimens; number of specimens in rating 1 (Mexican bean beetle; 0.5%, rating scale 0-3): 1 specimens; number of specimens in rating 3 (Mexican bean beetle; 0.5%, rating scale 0-3): 1 specimens"
"CC(C)=CCC/C(C)=C/CCc1cccs1 [trans-9-(2-THIENYL)-2,6-DIMETHYL-2,6-NONADIENE]",8,10,9,5,,10,,,4,,,,2,,10,5,,10,9,"number of specimens in rating 1 (Tenebrio molitor pupae; 10%, rating scale 0-4): 1 specimens; number of specimens in rating 1 (Mexican bean beetle; 0.5%, rating scale 0-3): 1 specimens; number of specimens in rating 0 (milkweed bug; [2]): 3 specimens"
"CC(C)=CCC/C(C)=C/CCc1cccc(C)c1 [trans-2,6-dimethyl-9-(3-tolyl)-2,6-nonadiene]",10,9,9,1,,10,,1,10,10,10,10,,,5,1,7,10,10,"number of specimens in rating 2 (Tenebrio molitor pupae; 1%, rating scale 0-4): 1 specimens; number of specimens in rating 2 (Mexican bean beetle; 0.5%, rating scale 0-3): 1 specimens; number of specimens in rating 2 (Mexican bean beetle; 1%, rating scale 0-3): 1 specimens; number of specimens in rating 2 (milkweed bug; 1%, rating scale 0-3): 2 specimens"
"CC(C)=CCC/C(C)=C/CCc1ccc(F)cc1 [trans-9-(4-FLUOROPHENYL)-2,6-DIMETHYL-2,6-NONADIENE]",10,10,,,,,7,8,10,10,9,10,,,,,10,10,10,"number of specimens in rating 3 (Mexican bean beetle; 0.5%, rating scale 0-3): 10 specimens; number of specimens in rating 2 (milkweed bug; 0.5%, rating scale 0-3): 3 specimens; number of specimens in rating 2 (milkweed bug; 1%, rating scale 0-3): 2 specimens"
"CCC(C)=CCCC(C)=CCCc1ccc2c(c1)OCO2 [3,7-DIMETHYL-10-(3,4-METHYLENEDIOXYPHENYL)-3,7-DECADIENE]",,,,,,,8,9,5,,,,,10,,,,,10,"number of specimens in rating 4 (Tenebrio molitor pupae; 0.5%, rating scale 0-4): 10 specimens; number of specimens in rating 1 (milkweed bug; 0.5%, rating scale 0-3): 1 specimens"
"CC(C)=CCC/C(C)=C/CCc1c(Cl)cccc1Cl [trans-9-(2,6-DICHLOROPHENYL)-2,6-DIMETHYL-2,6-NONADIENE]",10,10,10,9,8,10,,,10,10,10,10,,,8,1,,,,"number of specimens in rating 0 (Tenebrio molitor pupae; [1]): 9 specimens; number of specimens in rating 1 (Mexican bean beetle; 10%, rating scale 0-3): 2 specimens"
"CCCCCCCCCc1ccc2c(c1)OCO2 [5-(n-NONYL)-1,3-BENZODIOXOLE]",6,2,9,10,,8,,4,5,,,,1,1,3,,,8,7,"number of specimens in rating 2 (Tenebrio molitor pupae; 0.5%, rating scale 0-4): 3 specimens; number of specimens in rating 2 (Tenebrio molitor pupae; 1%, rating scale 0-4): 5 specimens; number of specimens in rating 3 (Tenebrio molitor pupae; 1%, rating scale 0-4): 1 specimens; number of specimens in rating 3 (Tenebrio molitor pupae; 10%, rating scale 0-4): 3 specimens; number of specimens in rating 1 (milkweed bug; 0.5%, rating scale 0-3): 1 specimens; number of specimens in rating 1 (milkweed bug; 1%, rating scale 0-3): 1 specimens; number of specimens in rating 2 (milkweed bug; 1%, rating scale 0-3): 1 specimens; number of specimens in rating 0 (milkweed bug; [2]): 4 specimens; number of specimens in rating 2 (milkweed bug; 10%, rating scale 0-3): 1 specimens"
"CC(C)CCCC(C)CCCc1ccc2c(c1)OCO2 (stereo not drawn) [9-(3,4-methylenedioxyphenyl)-2,6-dimethylnonane]",,,,,,,8,10,8,,,,,10,,,,,10,"number of specimens in rating 3 (Tenebrio molitor pupae; 0.5%, rating scale 0-4): 3 specimens; number of specimens in rating 4 (Tenebrio molitor pupae; 0.5%, rating scale 0-4): 7 specimens"
"CC(C)=CCC/C(C)=C/CCc1ccc(Br)cc1 [trans-9-(4-BROMOPHENYL)-2,6-DIMETHYL-2,6-NONADIENE]",8,9,,,,,10,10,9,,,,1,,,,10,10,10,"number of specimens in rating 4 (Tenebrio molitor pupae; 0.5%, rating scale 0-4): 1 specimens; number of specimens in rating 1 (Tenebrio molitor pupae; 1%, rating scale 0-4): 1 specimens; number of specimens in rating 3 (Mexican bean beetle; 0.5%, rating scale 0-3): 10 specimens"

# Reference: patent publication US3962282A, “Juvenile hormone mimics” (priority 1974, dated 1976)
